This note sets out measurements from paper PMC12671775 (PLOS Genetics, 2025).

Data set [1] has as its target T1, ChuaHNL (hydroxynitrile lyase, CHUA_005138) (Chamberlinius hualienensis, UniProt A0A0H5BR52).
T1 construct: N-terminal His-tagged, produced in Pichia pastoris
It counts as biochemical.

Another data set deals with O=Cc1ccccc1. The data set can be described thus: purified protein.

One may read the Km as the substrate concentration at which the rate is half of its maximum. Turning to `N#CC(O)c1ccccc1` (racemic) [MAN, (R,S)-mandelonitrile], in data set [1], the Km is 13.7 ± 2.35 mM. For “ChuaHNL (hydroxynitrile lyase, CHUA_005138) (Chamberlinius hualienensis)”, the Km with O=Cc1ccccc1 amounted to 4.31 ± 0.771 mM.
